Key:
Ca^2+ channel = target: T1, Ca^2+ channel (Rattus norvegicus, UniProt P22002); assay: [3H]-Nitrendipine binding assay (affinity for calcium channels); details: rat cardiac microsomes; 0.5 nM [3H]-nitrendipine, 60 min, 25° C.
T1 construct: rat cardiac microsomes (source of Ca^2+ channels); from tissue; host or cells: rat cardiac microsomes
Procedure: [^3 H]-Nitrendipine binding assay was carried out according to the method described by G. T. Bolger, et al., Biochem. Biophys. Res. Comm., 104, 1604-1609, (1982). The reaction mixture contained rat cardiac microsomes (source of Ca^2+ channels), 0.5 nM [^3 H]-nitrendipine with or without potential displacer in Tris buffer. The mixture was incubated for 60 minutes at 25° C. and subsequently terminated by rapid filtration through a glass fiber-filter. Membrane-bound [^3 H]-nitrendipine trapped in the filter was quantitated by scintillation counting. The inhibitory concentration (IC50) of potential displacer which gives 50% displacement of the total specifically bound [^3 H]-nitrendipine is presented as a measure of the affinity of such compound for the Ca^2+ channel.

alpha1-adrenoceptor = assay: [3H]-Prazosin binding assay (affinity for alpha1-adrenoceptors); details: partially purified rat brain membranes; 0.2 nM [3H]-prazosin, 60 min, 25° C.
Procedure: The [^3 H]-prazosin binding assay was carried out according to the method described by Timmermans, P. B. M. W. M., Schoop, A. M. C., and Van Zwieten, P. A., Biochem. Pharmacol., 31, 899-905, (1982). The reaction mixture contained partially purified rat brain membranes (source of alpha1 -adrenoceptors), 0.2 nM [^3 H]-prazosin with or without potential displacer in Tris buffer. The mixture was incubated for 60 minutes at 25° C. and subsequently terminated by rapid filtration through glass fiber-filter. Receptor-bound [^3 H]-prazosin trapped in the filter was quantitated by scintillation counting. The inhibitory concentration (IC50) of potential displacer which gives 50% displacement of the total specifically bound [^3 H]-prazosin is presented as a measure of the affinity of such compound for the alpha1 -adrenoceptor.

guinea pig left atria = assay: Positive inotropic effect in guinea pig left atria; details: Cavia porcellus; for EC50: concentration that increases developed tension (DT) by 50% above the control DT, left atria paced at 2 Hz, 37° C.; for Emax: ratio of the maximum effect of the test compound to that of Bay K8644, read-out: Intrinsic Activity
Procedure: Guinea pigs are killed by cervical dislocation. The left atria are removed and mounted at 1 gm resting tension in tissue baths containing oxygenated Krebs bicarbonate solution which is kept at 37° C. The left atria are electrically paced at 2 Hz with square wave pulses of 1 msec duration. The voltage is set at 1.5×threshold level.
After a one hour equilibration period, control values for developed tension (DT, gm) are recorded. Test compounds are then added to the baths, in a cumulative manner to a maximum concentration of 10^-4, to obtain a concentration-response curve. Treatment values of DT are obtained after the drug effect has reached a plateau and the exposure time for each concentration is 5-8 minutes. Percent change of the treatment value from the control value is calculated at each concentration of the test compound.

T1 sequence (P22002 whole entry, other chains not shown): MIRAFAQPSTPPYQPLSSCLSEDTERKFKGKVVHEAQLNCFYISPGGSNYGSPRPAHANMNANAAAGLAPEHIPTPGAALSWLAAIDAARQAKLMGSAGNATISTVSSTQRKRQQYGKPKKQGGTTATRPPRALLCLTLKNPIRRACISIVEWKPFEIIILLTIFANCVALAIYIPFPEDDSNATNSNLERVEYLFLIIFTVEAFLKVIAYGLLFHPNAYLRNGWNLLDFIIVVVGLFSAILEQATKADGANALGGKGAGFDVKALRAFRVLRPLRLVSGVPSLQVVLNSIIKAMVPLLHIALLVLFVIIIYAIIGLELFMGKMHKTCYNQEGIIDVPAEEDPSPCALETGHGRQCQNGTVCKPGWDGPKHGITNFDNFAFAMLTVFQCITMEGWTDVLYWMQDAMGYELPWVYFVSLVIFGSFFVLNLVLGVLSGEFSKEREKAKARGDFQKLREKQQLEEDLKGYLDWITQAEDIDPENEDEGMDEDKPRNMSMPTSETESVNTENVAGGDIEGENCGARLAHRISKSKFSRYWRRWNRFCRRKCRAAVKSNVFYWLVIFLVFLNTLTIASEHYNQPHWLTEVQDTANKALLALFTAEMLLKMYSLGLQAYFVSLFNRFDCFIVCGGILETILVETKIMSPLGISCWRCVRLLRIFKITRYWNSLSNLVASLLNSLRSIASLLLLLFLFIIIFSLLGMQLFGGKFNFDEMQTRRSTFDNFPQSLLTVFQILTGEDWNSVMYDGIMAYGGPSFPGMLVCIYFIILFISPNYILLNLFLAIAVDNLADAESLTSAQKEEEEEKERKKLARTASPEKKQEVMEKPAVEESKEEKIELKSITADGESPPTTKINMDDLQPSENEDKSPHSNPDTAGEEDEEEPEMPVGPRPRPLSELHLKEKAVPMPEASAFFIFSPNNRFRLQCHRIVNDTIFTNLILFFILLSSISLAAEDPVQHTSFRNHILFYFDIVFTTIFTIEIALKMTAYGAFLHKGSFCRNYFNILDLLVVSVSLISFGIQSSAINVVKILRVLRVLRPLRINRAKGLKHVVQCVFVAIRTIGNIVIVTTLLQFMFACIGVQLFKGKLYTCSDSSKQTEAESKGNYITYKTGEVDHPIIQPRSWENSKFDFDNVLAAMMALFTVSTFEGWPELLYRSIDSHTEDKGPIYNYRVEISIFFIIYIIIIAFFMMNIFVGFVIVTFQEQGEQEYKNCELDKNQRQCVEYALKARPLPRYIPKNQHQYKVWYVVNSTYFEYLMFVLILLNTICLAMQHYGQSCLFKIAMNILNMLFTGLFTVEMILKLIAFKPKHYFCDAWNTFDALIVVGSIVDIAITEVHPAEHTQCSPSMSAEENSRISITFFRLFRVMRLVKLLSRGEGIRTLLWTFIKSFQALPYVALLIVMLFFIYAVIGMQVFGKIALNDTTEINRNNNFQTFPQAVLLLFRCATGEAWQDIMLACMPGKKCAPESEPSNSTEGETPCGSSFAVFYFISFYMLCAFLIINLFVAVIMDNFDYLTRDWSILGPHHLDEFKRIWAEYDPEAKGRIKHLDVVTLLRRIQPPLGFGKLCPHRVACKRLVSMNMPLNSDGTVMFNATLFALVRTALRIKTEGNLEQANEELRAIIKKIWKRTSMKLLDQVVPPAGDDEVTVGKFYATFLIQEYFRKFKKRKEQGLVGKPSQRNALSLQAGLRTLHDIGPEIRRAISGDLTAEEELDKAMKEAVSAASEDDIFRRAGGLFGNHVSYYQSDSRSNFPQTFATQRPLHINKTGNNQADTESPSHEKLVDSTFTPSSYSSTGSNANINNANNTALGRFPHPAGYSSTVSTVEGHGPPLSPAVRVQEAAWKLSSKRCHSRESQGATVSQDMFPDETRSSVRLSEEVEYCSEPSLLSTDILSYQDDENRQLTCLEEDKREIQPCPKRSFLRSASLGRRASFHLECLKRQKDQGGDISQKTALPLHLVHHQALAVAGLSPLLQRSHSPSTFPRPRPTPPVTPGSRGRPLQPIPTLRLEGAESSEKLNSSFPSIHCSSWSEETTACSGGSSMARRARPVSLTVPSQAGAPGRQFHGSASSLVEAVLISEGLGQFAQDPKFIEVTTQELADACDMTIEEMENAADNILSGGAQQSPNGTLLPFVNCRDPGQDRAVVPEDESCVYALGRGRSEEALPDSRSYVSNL
T1 sequence (P54290 25-944 partner limits assumed, other chains not shown): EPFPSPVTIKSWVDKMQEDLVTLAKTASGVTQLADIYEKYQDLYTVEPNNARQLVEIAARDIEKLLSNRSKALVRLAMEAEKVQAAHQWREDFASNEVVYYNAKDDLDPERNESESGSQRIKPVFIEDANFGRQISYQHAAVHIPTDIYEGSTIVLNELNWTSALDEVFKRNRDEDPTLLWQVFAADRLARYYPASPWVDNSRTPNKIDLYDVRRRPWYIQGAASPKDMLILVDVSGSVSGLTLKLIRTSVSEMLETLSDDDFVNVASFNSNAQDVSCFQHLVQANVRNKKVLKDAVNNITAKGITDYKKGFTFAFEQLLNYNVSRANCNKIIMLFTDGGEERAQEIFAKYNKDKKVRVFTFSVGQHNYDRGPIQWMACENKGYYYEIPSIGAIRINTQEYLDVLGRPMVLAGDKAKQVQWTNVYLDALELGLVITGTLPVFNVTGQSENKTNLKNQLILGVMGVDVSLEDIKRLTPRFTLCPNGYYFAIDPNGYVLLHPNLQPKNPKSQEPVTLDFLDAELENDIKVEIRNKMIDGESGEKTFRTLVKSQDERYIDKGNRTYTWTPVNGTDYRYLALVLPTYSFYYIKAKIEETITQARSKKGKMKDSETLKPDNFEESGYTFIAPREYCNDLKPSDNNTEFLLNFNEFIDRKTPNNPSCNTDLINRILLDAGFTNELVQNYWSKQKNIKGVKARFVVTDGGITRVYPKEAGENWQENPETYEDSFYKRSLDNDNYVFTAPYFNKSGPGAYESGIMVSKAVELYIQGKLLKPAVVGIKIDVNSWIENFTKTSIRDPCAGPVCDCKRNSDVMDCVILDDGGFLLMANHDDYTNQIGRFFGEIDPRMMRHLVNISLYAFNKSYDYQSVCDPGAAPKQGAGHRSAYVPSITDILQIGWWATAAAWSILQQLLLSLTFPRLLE
T1 sequence (P54290 945-1091 partner limits assumed, other chains not shown): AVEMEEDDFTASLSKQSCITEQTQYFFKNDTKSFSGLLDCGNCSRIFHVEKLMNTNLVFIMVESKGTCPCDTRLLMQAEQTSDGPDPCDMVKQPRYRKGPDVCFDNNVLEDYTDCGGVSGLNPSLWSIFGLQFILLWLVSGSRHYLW

Row | Structure (SMILES) | IC50 (Ca^2+ channel) [nM] | IC50 (alpha1-adrenoceptor) [nM] | EC50 (guinea pig left atria) [nM] | Emax (guinea pig left atria) [%]
1 | COC(=O)C1=C(C)NC(C)=C([N+](=O)[O-])C1c1ccoc1CCCCCN1CCN(C(=O)c2ccco2)CC1 (stereo not drawn) [Example 2] | 1500 | 1900 | 96000 | 144
2 | COC(=O)C1=C(C)NC(C)=C([N+](=O)[O-])C1c1ccccc1[S+]([O-])CCCCN1CCN(c2ccccc2OC)CC1 (stereo not drawn) [Example 4] | 890 | 20 |  | 43
3 | COC(=O)C1=C(C)NC(C)=C([N+](=O)[O-])C1c1ccccc1OCCCCCN1CCN(C(=O)c2ccco2)CC1 (stereo not drawn) [Example 5] | 680 | 2200 | 3000 | 269
4 | COC(=O)C1=C(C)NC(C)=C([N+](=O)[O-])C1c1ccccc1OCCCCCN1CCC(c2ccccc2)CC1 (stereo not drawn) [Example 6] | 360 | 900 | 2000 | 207
5 | COC(=O)C1=C(C)NC(C)=C([N+](=O)[O-])C1c1ccccc1OCCCCCN1CCN(c2ccc(Cl)nn2)CC1 (stereo not drawn) [Example 7] | 650 | 1900 | 12000 | 149
6 | COC(=O)C1=C(C)NC(C)=C([N+](=O)[O-])C1c1ccccc1OCCCCCN1CCN(c2ccc(OC(C)C)nn2)CC1 (stereo not drawn) [Example 8] | 580 | 15000 | 15000 | 113
7 | COC(=O)C1=C(C)NC(C)=C([N+](=O)[O-])C1c1ccccc1OCCCCCN1CCN(C(=O)C2COc3ccccc3O2)CC1 (stereo not drawn) [Example 9] | 950 | 5200 | 53000 | 62
8 | COC(=O)C1=C(C)NC(C)=C([N+](=O)[O-])C1c1ccccc1OCCCCCN1CCN(c2cnccn2)CC1 (stereo not drawn) [Example 10] | 1200 | 7200 | 2800 | 55
9 | COc1ccccc1N1CCN(CCCCOC(=O)C2=C(C)NC(C)=C([N+](=O)[O-])C2c2cccc3nonc23)CC1 (stereo not drawn) [Example 51, 4-(4-Benzofurazanyl)-1,4-dihydro-2,6-dimethyl-5-nitro-3-pyridinecarboxylicacid, {4-[4-(2-methoxyphenyl)-1-piperazinyl]butyl} ester] | 110 | 120 | 11000 | 175
10 | COc1ccccc1N1CCN(CCCCOC(=O)C2=C(C)NC(C)=C([N+](=O)[O-])C2c2cccnc2)CC1 (stereo not drawn) [Example 52] | 3900 | 52 |  | 35
11 | CC1=C(C(=O)OCCCCN2CCN(c3ncccn3)CC2)C(c2cccnc2)C([N+](=O)[O-])=C(C)N1 (stereo not drawn) [Example 53, 1,4-Dihydro-2,6-dimethyl-5-nitro-4-(3-pyridinyl)-3-pyridinecarboxylic acid: {4-[4-(2-pyrimidinyl)-1-piperazinyl]butyl} ester] | 4400 | 400 | 25000 | 189
12 | CC1=C(C(=O)OCCCCN2CCN(c3ncccn3)CC2)C(c2cccc3nonc23)C([N+](=O)[O-])=C(C)N1 (stereo not drawn) [Example 54] | 290 | 820 | > 100000 | 21
13 | COc1ccccc1N1CCN(CCOC(=O)C2=C(C)NC(C)=C([N+](=O)[O-])C2c2ccoc2)CC1 (stereo not drawn) [Example 55, 4-(3-Furanyl)-1,4-dihydro-2,6-dimethyl-5-nitro-3-pyridinecarboxylic acid, {2-[4-(2-methoxyphenyl)-1-piperazinyl]ethyl} ester] | 5100 | 100 | 1000 | 169
14 | COc1ccccc1N1CCN(CCOC(=O)C2=C(C)NC(C)=C([N+](=O)[O-])C2c2ccco2)CC1 (stereo not drawn) [Example 59] | 1500 | 100 | 2700 | 98
15 | CC1=C(C(=O)OCCN2CCN(c3ncccn3)CC2)C(c2ccco2)C([N+](=O)[O-])=C(C)N1 (stereo not drawn) [Example 60] | 2000 | 5900 | 1600 | 140
16 | CC1=C(C(=O)OCCN2CCN(c3ncccn3)CC2)C(c2cccnc2)C([N+](=O)[O-])=C(C)N1 (stereo not drawn) [Example 62] | 3700 | > 1000 | > 100000 | 48
17 | COc1ccccc1N1CCN(CCCCOC(=O)C2=C(C)NC(C)=C([N+](=O)[O-])C2c2ccoc2)CC1 (stereo not drawn) [Example 67] | 3500 | 63 | 24000 | 86

Second part, led by results:

Row | IC50 (Ca^2+ channel) [nM] | IC50 (alpha1-adrenoceptor) [nM] | EC50 (guinea pig left atria) [nM] | Structure (SMILES) | Emax (guinea pig left atria) [%]
18 | 600 | 130 | 5000 | COC(=O)C1=C(C)NC(C)=C([N+](=O)[O-])C1c1ccoc1CCCCCN1CCN(c2ccccc2OC)CC1 (stereo not drawn) [Example 1, 1,4-Dihydro-4-(2-{5-[4-(2-methoxyphenyl)-1-piperazinyl]pentyl}-3-furanyl)-2,6-dimethyl-5-nitro-3-pyridinecarboxylic acid, methyl ester] | 188
19 | 240 | 63 | 1000 | COC(=O)C1=C(C)NC(C)=C([N+](=O)[O-])C1c1ccccc1S(=O)(=O)CCCCN1CCN(c2ccccc2OC)CC1 (stereo not drawn) [Example 3] | 89
20 | 360 | 5300 | 43000 | CCCOc1cc(N2CCN(CCCCCOc3ccccc3C3C(C(=O)OC)=C(C)NC(C)=C3[N+](=O)[O-])CC2)ncn1 (stereo not drawn) [Example 11] | 68
21 | 4300 | 5200 | 430 | CC1=C(C(=O)OCCN2CCN(c3ncccn3)CC2)C(c2ccoc2)C([N+](=O)[O-])=C(C)N1 (stereo not drawn) [Example 56, 4-(3-Furanyl)-1,4-dihydro-2,6-dimethyl-5-nitro-3-pyridinecarboxylic acid, {2-[4-(2-pyrimidinyl)-1-piperazinyl]ethyl} ester] | 171
22 | 1300 | 33 | 2300 | COc1ccccc1N1CCN(CCCCOC(=O)C2=C(C)NC(C)=C([N+](=O)[O-])C2c2cccn2C)CC1 (stereo not drawn) [Example 57, 1,4-Dihydro-2,6-dimethyl-4-(1-methyl-1H-pyrrol-2-yl)-5-nitro-3-pyridinecarboxylic acid, {4-[4-(2-methoxyphenyl)1-piperazinyl]butyl} ester] | 110
23 | 1800 | 750 | 840 | CC1=C(C(=O)OCCCCN2CCN(c3ncccn3)CC2)C(c2cccn2C)C([N+](=O)[O-])=C(C)N1 (stereo not drawn) [Example 58, 1,4-Dihydro-2,6-dimethyl-4-(1-methyl-1H-pyrrol-2-yl)-5-nitro-3-pyridinecarboxylic acid, {4-[4-(2-pyrimidinyl)-1-piperazinyl]butyl} ester] | 195
24 | 1300 | 25 | 1500 | COc1ccccc1N1CCN(CCOC(=O)C2=C(C)NC(C)=C([N+](=O)[O-])C2c2cccnc2)CC1 (stereo not drawn) [Example 61] | 164
25 | 2200 | 60 | 12000 | COc1ccccc1N1CCN(CCCCOC(=O)C2=C(C)NC(C)=C([N+](=O)[O-])C2c2cccs2)CC1 (stereo not drawn) [Example 63] | 75
26 | 1200 | 1200 | 3400 | CC1=C(C(=O)OCCCCN2CCN(c3ncccn3)CC2)C(c2cccs2)C([N+](=O)[O-])=C(C)N1 (stereo not drawn) [Example 64] | 76
27 | 860 | 180 | 1000 | COc1ccccc1N1CCN(CCOC(=O)C2=C(C)NC(C)=C([N+](=O)[O-])C2c2ccsc2)CC1 (stereo not drawn) [Example 65, 1,4-Dihydro-2,6-dimethyl-5-nitro-4-(3-thienyl)-3-pyridinecarboxylic acid, {2-[4-(2-methoxyphenyl)-1-piperazinyl]ethyl} ester] | 225
28 | 950 | 6000 | 850 | CC1=C(C(=O)OCCN2CCN(c3ncccn3)CC2)C(c2ccsc2)C([N+](=O)[O-])=C(C)N1 (stereo not drawn) [Example 66, 1,4-Dihydro-2,6-dimethyl-5-nitro-4-(3-thienyl)-3-pyridinecarboxylic acid, {2-[4-(2-pyrimidinyl)-1-piperazinyl]ethyl} ester] | 210
29 | 2700 | 850 | 3700 | CC1=C(C(=O)OCCCCN2CCN(c3ncccn3)CC2)C(c2ccoc2)C([N+](=O)[O-])=C(C)N1 (stereo not drawn) [Example 68, 4-(3-Furanyl)-1,4-dihydro-2,6-dimethyl-5-nitro-3-pyridinecarboxylic acid, {4-[4-(2-pyrimidinyl)-1-piperazinyl]butyl} ester] | 147
